Data as given in PubChem BioAssay (NCI).
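Dose response: 5 concentrations. Exposure: 48 h. Format: 96-well plates. Endpoint: linear interpolation; highest concentration if not reached. GI50 marks 50% less growth. TGI: total growth inhibition.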

Legend:
Test in all cases: growth of human tumour cells (NCI), 48 h
[1] = tested on: MALME-3M melanoma
[2] = tested on: OVCAR-3 ovarian
[3] = tested on: HOP-62 NSCLC
[4] = tested on: TK-10 renal
[5] = tested on: ACHN renal
[6] = tested on: HCT-116 colon
[7] = tested on: SNB-19 CNS
[8] = tested on: BT-549 breast
[9] = tested on: MDA-MB-231 breast
[10] = tested on: NCI/ADR-RES ovarian

Row | Structure (SMILES) | GI50 [1] [µM] | TGI [1] [µM] | GI50 [2] [µM] | TGI [2] [µM] | GI50 [3] [µM] | TGI [3] [µM] | GI50 [4] [µM] | TGI [4] [µM] | GI50 [5] [µM] | TGI [5] [µM] | GI50 [6] [µM] | TGI [6] [µM] | GI50 [7] [µM] | TGI [7] [µM] | GI50 [8] [µM] | TGI [8] [µM] | GI50 [9] [µM] | TGI [9] [µM] | GI50 [10] [µM] | TGI [10] [µM]
1 | COc1ccc2c(c1)CC[C@@H]1[C@@H]2CC[C@]2(C)c3[nH]ncc3C[C@@H]12 | 11.7 | 27 | 8.9 | 18.6 | 24.7 | > 50 | 27 | > 50 | 19 | > 50 | 12.3 | 31.9 | 21.4 | > 50 | 26 | > 50 | 11.5 | > 50 | 15.8 | > 50
2 | CC(N)(Cc1c[nH]c2ccccc12)C(=O)O (stereo not drawn) | 522 | > 2500 | > 2500 | > 2500 | > 2500 | > 2500 | > 2500 | > 2500 | > 2500 | > 2500 | > 2500 | > 2500 | > 2500 | > 2500 | > 2500 | > 2500 | > 2500 | > 2500 | > 2500 | > 2500
3 | O=C1OCC2=C1C(c1cccc(C(F)(F)F)c1)c1cc3c(cc1N2CCO)OCO3 (stereo not drawn) | 2.67 | > 50 | 1.32 | > 50 | 1.97 | > 50 | 10.1 | > 50 | 3.09 | > 50 | 0.408 | > 50 | 1.62 | > 50 | 0.919 | 27.3 | 1.77 | > 50 | 1.34 | > 50
4 | NC(=O)c1ccc2nc(-c3ccc(C4(N)CCC4)cc3)c(-c3ccccc3)n2n1 | 1.19 | 19.7 | 0.817 | 22 | 11.6 | 27.7 | 2.85 | 27.8 | 5.97 | 20.8 | 10.2 | 22.6 | 11.3 | 25.8 | 1.28 | 14.5 | 14.3 | 32.3 | 15.1 | 41.2
5 | C=CC(=O)NCCOc1cccc(Nc2cc(NCCCNC(=O)C3CCC3)c(Br)cn2)c1 | 1.46 | 6.43 | 0.836 | 3.75 | 0.302 | 4.98 | 1.6 | 7.77 | 0.75 | > 25 | 0.798 | > 25 | 1.08 | 14 | 0.603 | 1.93 | 0.478 | 1.48 | 8.74 | > 25
6 | CCCCCCCCCCCCOC1C(CNCC2OC3OC(C)(C)OC3C2NC(=O)Nc2ccc(C(F)(F)F)cc2)OC2OC(C)(C)OC21 (stereo not drawn) | 3.39 | 13.7 | 4.59 | 13.3 | 8.1 | 15.1 | 3.39 | 7.86 | 7.05 | 14 | 2.46 | 4.7 | 9.07 | 18 | 7.44 | 14.4 | 2.94 | 7.37 | 8.44 | 17.1
7 | CC(C)(C)OC(=O)N1CC(Cn2cc(C(F)(F)F)c3c(Cl)ncnc32)C1 | 12.4 | 26.6 | 1.92 | 3.6 | 1.95 | 3.93 | 24.6 | 62.5 | 15 | 31.9 | 1.86 | 3.35 | 1.8 | 3.33 | 1.62 | 3.06 | 6.92 | 23.4 | 13.9 | 65.4
8 | CNS(=O)(=O)c1ccccc1C(=N)c1ccccc1 | – | > 100 | – | > 100 | – | > 100 | – | > 100 | – | > 100 | – | > 100 | – | > 100 | – | > 100 | – | > 100 | – | > 100
9 | O=S(=O)(CC#CCCCOCC#Cc1ccccc1C#CCS(=O)(=O)c1ccccc1)c1ccccc1 | 20.6 | 59.7 | 11.6 | 30 | 31.7 | > 100 | > 100 | > 100 | 24.3 | 55 | 16.2 | 29.7 | > 100 | > 100 | 19 | 34.8 | 19.8 | 42.8 | 20.6 | 44.1
10 | COc1ccc(C2=CC(c3ccc(Oc4ccnc5cc(Cl)ccc45)c(OC)c3)c3c(nc(OC)[nH]c3=O)N2)cc1 (stereo not drawn) | > 100 | > 100 | 6.46 | > 100 | 84.9 | > 100 | – | – | 5.24 | > 100 | 3.62 | > 100 | 61.4 | > 100 | 3.99 | > 100 | 8.62 | > 100 | 9.88 | > 100
11 | COc1cc(-c2cc(-c3nc4cc(Cl)c(Cl)cc4[nH]3)[nH]n2)cc(OC)c1OC | 2.7 | 12.4 | 4.05 | 15.4 | 3.43 | 11 | 4.61 | 15.5 | 3.54 | 12.8 | 2.78 | 10.3 | 5.47 | 22.2 | 2.84 | 8.02 | 4.14 | 20.1 | 3.25 | > 100
12 | COc1cc2cn3c4ccc(O)cc4nc(N)c3c2cc1OC | 0.792 | 16.8 | 0.231 | 3 | 0.375 | 7.67 | 1.54 | 9.55 | 0.191 | 2.77 | 0.0931 | 1.72 | 0.211 | 16.7 | 1.61 | 8.96 | 2 | 15.6 | 1.92 | 17.3
